The source of these data is patent US20160279190A1, “MODULATION OF AXON DEGENERATION” (GENENTECH, INC., priority 2008, published 2016).

Assay [1] relates to cerebellar granule neurons (CGNs). Nature of the assay: serum deprivation/KCl reduction-induced degeneration. It is filed as cell-based, mouse. To be noted: 5 mM KCl, 24 hours. The protocol:
Kinase inhibitors (inhibitors of GSK3, JNK, EGFR, p38, and CaMKK) were tested for their capacity to protect cultured cerebellar granule neurons (CGNs) following serum deprivation/KCl reduction. Briefly, CGNs isolated from P7 mouse brain were cultured on PDL- and laminin-coated 96-well tissue culture dishes in medium containing serum and potassium (Basal Medium Eagles including 29 mM KCl and 10% FBS) at 37° C. After 24 hours in culture, cells were switched to “deprivation” medium (Basal Medium Eagles including 5 mM KCl), alone or in combination with various small molecule inhibitors as shown in Table 8. After a further 24 hours in culture, the neurons were fixed with 4% paraformaldehyde and stained with a neuronal marker (anti-class III β-Tubulin, Covance). Image acquisition was performed using the ImageXpress automated imaging system (Molecular Devices).

For assay [2], the system named is DRGs. Nature of the assay: Campenot chamber local axon degeneration, anti-NGF in axon compartment. It is filed as cell-based, mouse. To be noted: for formation of varicosities in locally NGF-deprived axons: axon inhibitors added to axon compartment: 10 μM AG555, 30 μM SB239; for Axon Compartment (axon protected when inhibitor is in axon compartment) / Cell Body Compartment (axon protected when inhibitor is in cell body compartment): anti-NGF in axon compartment, 28 hours. The protocol: Teflon dividers (Tyler Research) were cleaned by washing in water and wiping them clean of any residual grease. Dividers were then soaked in Nochromix (Godax Laboratories)/sulfuric acid overnight, rinsed five times in distilled and autoclaved water (SQ water), boiled for 30 minutes, and then air-dried before use.
Mouse laminin (5 μg/ml in sterile filtered water; Invitrogen) was added to PDL coated 35 mm dishes (BD Biosciences) and they were incubated for 1 hour at 37° C., followed by two rinses in SQ water. The dishes were vacuum-dried and then air-dried in a laminar flow hood for 15 minutes. Prepared dishes were then scored with a pin rake (Tyler Research). […] High vacuum grease (VWR) was added to each Teflon divider under a dissection scope. The laminin coated PDL dishes were inverted and dropped onto the Teflon divider, with additional pressure added by use of a toothpick in the non-track-containing regions. Dishes were incubated for 1 hour at 37° C. Five hundred microliters of NBM+MC (50 ng/ml NGF) solution was added to each of the side compartments, and a grease barrier was added in front of the center cell slot.
Free E13.5 spinal cords were dissected from mouse embryos and placed into NBM+MC (25 ng/ml NGF) solution. DRGs were detached from the spinal cord with a tungsten needle. An NBM+MC-lubricated P200 pipette was used to move DRGs into a 1.5 ml tube. DRGs were pelleted with a tabletop centrifuge for 30 seconds. The supernate was discarded and 0.05% Trypsin/EDTA (cold) was added. The pellet was resolubilized with a pipette and incubated at 37° C. for 15 minutes with constant agitation (650 RPM). The sample was again centrifuged and the supernate discarded. The pellet was resuspended in warm NBM+MC (50 ng/ml NGF) solution and triturated with a flamed glass pipette 20 times, followed by trituration with a fire-bored glass pipette another 20 times. The samples were again centrifuged and the resulting pellets were resuspended in 0.5 ml NBM+MC (50 ng/ml NGF) solution. The cells were diluted to a final concentration of 2.5×10^6 cells/ml. The cell suspensions were loaded into a 1 ml syringe with a 22 gauge needle. The center slot of the Campenot divider was filled using the syringe (to a volume of at least 50 μl). The Campenot chamber was incubated overnight at 37° C. 2.5 ml NGF+MC (50 ng/ml NGF) solution was added to the center compartment and the grease gate was removed. The outer medium (cell body compartment) was replaced after three days with 2.5 ml NBM+MC medium (with 25 ng/ml NGF). After five days in culture, one distal compartment was washed three times with warmed NBM+MC (no NGF) solution. After the third wash, 500 μl NBM+MC (no NGF) solution was added to the axon compartment in combination with either 0.5% DMSO or an inhibitor. The cell body compartment was replaced with 2.5 ml NBM+MC medium (with 25 ng/ml NGF) containing either 0.5% DMSO or inhibitor.
After 28 hours of anti-NGF antibody treatment, 8% PFA/30% sucrose solution (see above) was added directly to the culture medium at a 1:1 dilution and incubated for 30 minutes. The Teflon divider was removed after the first 15 minutes of addition. The system was washed once with 2.5 ml PBS prior to immunostaining. Neurons were blocked in 5% BSA/0.2% triton in PBS for 30 minutes. The primary antibody Tuj1 (Covance) was added to a final dilution of 1:1000 in PBS containing 2% BSA and incubated overnight at 4° C. The dish was washed once with PBS. […] The dish was washed twice with PBS, and a 22×22 mm coverslip (VWR) was added with 350 μl of fluoromount G (Electron Microscopy Sciences). The neurons were visualized by use of a fluorescence microscope.
As described above, E13.5 DRGs were isolated and grown for 5 days in a Campenot chamber.

Assay [3] relates to DRGs. In words: G-protein/GPCR inhibitors in NGF withdrawal-induced degeneration in DRGs. It is filed as cell-based. The protocol: The assays described herein identified several inhibitors of G-proteins and G-protein coupled receptors (GPCRs) that decrease degeneration in neurons. Experiments were performed in DRGs to verify the role of G-proteins and GPCRs in degeneration pathways. The experimental protocols used in these experiments are the same as those described in Example 14. Pertussis toxin and SCH 202676 were purchased from Tocris Bioscience.

The test system of assay [4] is dorsal spinal cord explants. Nature of the assay: dorsal spinal cord (DSC) explant degeneration. It counts as cell-based. To be noted: 3.4 μM, 11.1 μM, 33.3 μM and 100 μM (FIG. 37).
Text: DSCs grow out axons over a period of days, but if they are not rescued with the addition of a survival factor, they will eventually degenerate.
Assay [5] relates to dorsal root ganglion neurons. Nature of the assay: EGFR ligand added to neurons maintained in NGF: axon degeneration. It is filed as cell-based, mouse. To be noted: 100 μg/mL EGF. The protocol: (§1) Dorsal Root Ganglia (DRG) immunoblots were prepared as follows. Primary cells used in the experiments were Charles River CD-1 E13 Dorsal Root Ganglia (DRG). The cells were maintained in N3/F12 (+25 ng/ml NGF) medium (Ham's F12 (23 ml), N3 supplement (1 ml), glucose (1 ml of 1 M glucose stock), 25 ng/ml Nerve Growth Factor 2.5 S, mouse (Roche 11362348001) in Ham's F12 (stock: 50 μg/ml −80° C.), which was filter-sterilized prior to use). The experiments also employed Triton lysis buffer (20 mM Tris pH 7.5, 150 mM NaCl, 0.1% Triton-X100, 100× Phosphatase inhibitor cocktail I (added fresh), 100× Phosphatase inhibitor cocktail II (added fresh), 1 tablet/10 ml Protease inhibitor tablet (added fresh)).
DRG explants were prepared on Day 0. Embryo dissections were carried out in L15 medium (dissection tools were soaked in 70% isopropanol, and dishes were set up on ice: 10 cm dishes (4 embryos per dish) and one 6 cm dish for spinal cords). E13.5 spinal cords were extracted into DMEM+10% FBS. 5×20 DRGs were detached from the spinal cord. 8 well slides were filled with 250 μl N3/F12 (25 ng/ml NGF)+7 μM cytosine arabinoside. […]
The goal of these experiments was to see if activation of EGFR by EGF would be sufficient to drive degeneration. […] To ensure that EGF is capable of activating EGFR/ErbBs in the neuronal cultures used in these assays, ERK activation was assessed (ERK is a downstream target of EGFR).

A further assay relates to ERK. In words: ERK activation by EGFR ligand, Western blot. It counts as cell-based, mouse. To be noted: 100 μg/mL EGF, 30 minutes to 1 hour. The protocol: as §1
DRG explants were prepared on Day 0. Embryo dissections were carried out in L15 medium (dissection tools were soaked in 70% isopropanol, and dishes were set up on ice: 10 cm dishes (4 embryos per dish) and one 6 cm dish for spinal cords). E13.5 spinal cords were extracted into DMEM+10% FBS. […]
Immunoblotting was carried out by aspiration of media with a pipette tip, washing twice with ice-cold sterile PBS, and removal of all PBS using an aspirator with a pipette tip or kimwipes. […] Quantification was carried out by choosing a background method and standard bands that minimize negative/counter-intuitive values: i.e., top/bottom, right/left, user-defined (user-defined). […]
(In general: A western blot detects proteins with antibodies after separation by electrophoresis.)

Where [6] appears, read: inhibitor 30 μM, listed as SB239.
Where [7] appears, read: inhibitor 30 μM, listed as SB239063.

“Also recorded” adds a separate entry of the source.

Regarding `C=C/C=C(\C=C)CCCNC(=O)/C(C#N)=C/c1ccc(O)c(O)c1` [AG 555], the “protection of cerebellar granule neurons from serum deprivation/KCl reduction” value in assay [1] (inhibitor 1 μM or 10 μM) is “protect cerebellar granule neurons from serum deprivation/KCl reduction”. For the same compound, the “formation of varicosities in locally NGF-deprived axons” value in the assay on DRGs [2] is listed as “fewer varicosities”. For the same compound, in the assay on DRGs [2] (inhibitor 10 μM), the “Axon Compartment (axon protected when inhibitor is in axon compartment)” value is given as “did not degenerate; also recorded: protected from local degeneration; also recorded: Yes (4)” and the “Cell Body Compartment (axon protected when inhibitor is in cell body compartment)” value is “failed to prevent degeneration; also recorded: No (4)”.

`COc1nccc(-c2c(-c3ccc(F)cc3)ncn2C2CCC(O)CC2)n1` (stereo not shown) [SB 239063]: the “protection of cerebellar granule neurons from serum deprivation/KCl reduction” value in assay [1] (inhibitor 5 μM) is recorded as “protect cerebellar granule neurons from serum deprivation/KCl reduction”. Moreover, in the assay with DRGs [2], the “formation of varicosities in locally NGF-deprived axons” value is on record as “fewer varicosities”. Also, the “Axon Compartment (axon protected when inhibitor is in axon compartment)” value with DRGs [2] (inhibitor 5 μM) is given as “Yes (1)”; in the assay with DRGs [2] (setting [6]), “did not degenerate; also recorded: protected from local degeneration”; in the assay on DRGs [2] (setting [7]), “Yes (3)”. In addition, the results for the “Cell Body Compartment (axon protected when inhibitor is in cell body compartment)” value with DRGs [2] (inhibitor 5 μM), in the assay with DRGs [2] (setting [6]) and in the assay on DRGs [2] (setting [7]) were “No (1)”, “failed to prevent degeneration” and “No (3)”, respectively.

For `CN=c1nc(-c2ccccc2)n(-c2ccccc2)s1` [SCH 202676], in the assay on DRGs [3] (0.1 μM, 1 μM, 10 μM or 100 μM (FIGS. 49 and 50)), the “NGF withdrawal-induced degeneration in DRGs” value is reported as “decreases NGF withdrawal-induced degeneration in DRGs”.

For `O=C1c2ccccc2-c2n[nH]c3cccc1c23` [SP600125], the “protection of cerebellar granule neurons from serum deprivation/KCl reduction” value in assay [1] (inhibitor 5 μM) was “protect cerebellar granule neurons from serum deprivation/KCl reduction”. In the assay on DRGs [2] (inhibitor 5 μM), the “Axon Compartment (axon protected when inhibitor is in axon compartment)” value was “Yes (1)” and the “Cell Body Compartment (axon protected when inhibitor is in cell body compartment)” value was “Yes (1)”. In the assay with DRGs [2] (inhibitor 10 μM), the “Axon Compartment (axon protected when inhibitor is in axon compartment)” value is reported as “Yes (1)” and the “Cell Body Compartment (axon protected when inhibitor is in cell body compartment)” value was “Yes (1)”.

`C#Cc1cccc(Nc2ncnc3cc(OCCOC)c(OCCOC)cc23)c1` [Tarceva, N-(3-ethynylphenyl)-6,7-bis(2-methoxyethoxy)quinazolin-4-amine]: the “degeneration in dorsal spinal cord explants” value in assay [4] was “delay this degeneration program; also recorded: blocks degeneration in dorsal spinal cord explants”.

Regarding “EGF: ErbB ligand (ErbB1) that activates EGFR (NSDSECPLSHDGYCLHDGVCMYIEALDKYACNCVVGYIGERCQYRDLKWWELR; Epidermal growth factor; UniProt P01133 971-1023, looked up)”, in assay [5], the “induction of axon degeneration in neurons maintained in NGF” value is given as “does not cause degeneration; also recorded: does not induce axon degeneration”. Besides, in the assay with ERK, the “phosphorylation of ERK (ERK activity by Western blot)” value is “increased ERK activity; also recorded: induces phosphorylation of ERK”.

Take Pertussis toxin: the “degeneration in neurons following NGF withdrawal” value in the assay with DRGs [3] (0.01 μg/mL, 0.1 μg/mL or 1 μg/mL (FIG. 51)) was “decreases degeneration in neurons following NGF withdrawal”.
